“And” between values parts separate entries of the source, which are not always exact repeats. Identical values can stand only once. Like-named read-outs stand apart in the source and are kept apart here. Ends that are not written are not given here.
Assays:
Assay type in all cases: cell-based, human
[1] = system: A549 cells; assay: Epic RWG biosensor DMR assay, agonist mode (primary profile), A549 cells; details: for DMR signal triggered by the ligand (primary profile), second ligand panel: FIG. 8: 40 μM pinacidil, 250 μg/ml poly(I:C), 8 μM PMA, 16 μM forskolin
Description: All cell lines were obtained from American Type Cell Culture (Manassas, Va.). The cell culture medium was as follows: Dulbecco's modified Eagle's medium (DMEM) supplemented with 10% fetal bovine serum (FBS), 4.5 g/liter glucose, 2 mM glutamine, and antibiotics for human epidermoid carcinoma A431 and human lung carcinoma A549.
Cells were typically grown using ˜1 to 2×10^4 cells per well at passage 3 to 15 suspended in 50 μl of the corresponding culture medium in the biosensor microplate, and were cultured at 37° C. under air/5% CO2 for ˜1 day. Except for A431, which was subject to ˜20 hr starvation through continuous culture in the serum-free DMEM, the other cell types were directly assayed without starvation. The confluency for all cells at the time of assays was ˜95% to 100%.
Epic® wavelength interrogation system (Corning Inc., Corning, N.Y.) was used for whole cell sensing. This system consists of a temperature-control unit, an optical detection unit, and an on-board liquid handling unit with robotics. The detection unit is centered on integrated fiber optics, and enables kinetic measures of cellular responses with a time interval of ˜15 sec.
The RWG biosensor is capable of detecting minute changes in local index of refraction near the sensor surface. Since the local index of refraction within a cell is a function of density and its distribution of biomass (e.g., proteins, molecular complexes), the biosensor exploits its evanescent wave to non-invasively detect ligand-induced dynamic mass redistribution in native cells. The evanescent wave extends into the cells and exponentially decays over distance, leading to a characteristic sensing volume of ˜150 nm, implying that any optical response mediated through the receptor activation only represents an average over the portion of the cell that the evanescent wave is sampling. The aggregation of many cellular events downstream the receptor activation determines the kinetics and amplitudes of a ligand-induced DMR.
(§1) For biosensor cellular assays, molecule solutions were made by diluting the stored concentrated solutions with the HBSS (1× Hanks balanced salt solution, plus 20 mM Hepes, pH 7.1), and transferred into a 384 well polypropylene molecule storage plate to prepare a molecule source plate. Both molecule and marker source plates were made separately when a two-step assay was performed. In parallel, the cells were washed twice with the HBSS and maintained in 30 μl of the HBSS to prepare a cell assay plate. Both the cell assay plate and the molecule and marker source plate(s) were then incubated in the hotel of the reader system. After ˜1 hr of incubation the baseline wavelengths of all biosensors in the cell assay microplate were recorded and normalized to zero. Afterwards, a 2 to 10 minute continuous recording was carried out to establish a baseline, and to ensure that the cells reached a steady state. Cellular responses were then triggered by pipetting 10 μl of the marker solutions into the cell assay plate using the on-board liquid handler.
First, a panel of ligands targeting GPCRs, each at 10 μM concentration, was chosen, and examined their actions on the A549 cells using DMR measurements with the Epic® system. The ligand panel included the four P2Y agonists ADP, […], UTP and UDP, the adenosine receptor agonist adenosine, the calcium sensing receptor agonist spermine, the histamine receptor agonist histamine, the adrenergic receptor agonist epinephrine, the free fatty acid receptor agonist elaidic acid, the lipoxin receptor agonist lipoxin A4, the bradykinin receptor agonist bradykinin, the adrenodullin receptor agonist adrenodullin, the PAR1 agonist SFLLR-amide, the angiotensin receptor agonist angiotensin, the neuropeptide Y receptor agonist neuropeptide Y, and the PAR2 agonist SLIGKV-amide.
Next, a second ligand panel was chosen, and examined their actions on the A549 cells using DMR measures with the Epic® system.

[2] = system: A549 cells; assay: Epic DMR two-step assay, antagonist mode: modulation of marker-induced DMR signals in A549 cells; details: molecule 10 μM
Description: as §1
A second panel of markers was contacted with A549 cells at concentrations close to each of the marker's EC80 or EC100, and DMR measurements were obtained with and EPIC® system. This panel included poly(I:C), SLIGKV-amide, pinacidil, PMA, histamine, and forskolin. Each of these markers also leads to a wide array of cell signaling. Using Epic® cellular assays in conjunction with chemical biology and cell biology approach similar to the EGFR DMR mentioned above, we have determined the pathway(s) and network interaction(s) that is accounted for each marker-induced DMR signal in A549 cells. The main observations are summarized below. Poly(I:C) is an agonist for endogenous Toll-like receptor(s) in A549, whose activation leads to IKK pathway and AKT pathway. SLIGKV-amide is an agonist for endogenous protease activated receptor subtype 2 (PAR2) in A549, whose activation leads to Gq-, Gi- and G12/13-mediated signaling. Pinacidil is an opener for endogenous ATP-sensitive potassium (KATP) ion channel in A549, whose activation leads to Rho- and JAK-mediated signaling. PMA is an activator for protein kinase C (PKC), whose activation leads to PKC pathway and degranulation. Histamine is a natural agonist for endogenous histamine receptors (dominantly H1R, and possibly H3R), whose activation leads to dual signaling, possibly through Gq and Gi mediated signaling in A549. Forskolin is an activator for adenylyl cyclases, whose activation leads to cAMP-PKA pathway in A549. […] Each DMR signal represents an averaged response of 4 replicates.
A DMR index was generated for four ligand molecules. Quiescent A431 and proliferating A549 cells were separately exposed to the ligand molecules for about 1 hr to generate their primary profiles, followed by stimulation with each marker at a fixed concentration (as mentioned in FIGS. 7 and 8) for another 1 hr or so to generate secondary profiles of the molecule against the panels of markers in both types of cells. Next, one or more specific DMR parameters were chosen as a readout for plotting the DMR index of the molecule. For the pinacidil DMR response in A549, the amplitude of the N-DMR (i.e., the amplitude 30 min after stimulation) was chosen. For the poly(I:C) DMR response in A549, the amplitude of the late DMR (i.e., the amplitude 50 min after stimulation) was chosen. For the PMA response in A549, the late DMR amplitude (i.e., the amplitude 50 min after stimulation) was chosen. For the SLIGKV-amide DMR response in A549, the P-DMR amplitude (i.e., the amplitude 20 min after stimulation) was chosen. For the forskolin response in A549 cells, the P-DMR amplitude (i.e., the amplitude 50 min after stimulation) was chosen. For the histamine response in A549, both the early DMR amplitude (i.e., amplitude 10 min after stimulation) and the late response (i.e., the amplitude 30 min after stimulation) were chosen. […]

[3] = system: quiescent A431 cells; assay: Epic DMR two-step assay, antagonist mode: modulation of marker-induced DMR signals in quiescent A431 cells
Description: as §1
Next, the target specificity and signaling pathway of EGF was probed using a second set of assays.
A first panel of markers was contacted with quiescent A431 cells at concentrations close to each of the marker's EC80 or EC100, and DMR measurements were obtained with and EPIC® system. This panel of markers was selected from a library of markers identified in A431 cells using Epic® cellular assays. This panel included epidermal growth factor (EGF), epinephrine, nicotinic acid, and histamine. Each of these markers leads to a wide array of cell signaling. […] Each DMR signal represents an averaged response of 4 replicates.
A DMR index was generated for four ligand molecules. Quiescent A431 and proliferating A549 cells were separately exposed to the ligand molecules for about 1 hr to generate their primary profiles, followed by stimulation with each marker at a fixed concentration (as mentioned in FIGS. 7 and 8) for another 1 hr or so to generate secondary profiles of the molecule against the panels of markers in both types of cells. Next, one or more specific DMR parameters were chosen as a readout for plotting the DMR index of the molecule. For the pinacidil DMR response in A549, the amplitude of the N-DMR (i.e., the amplitude 30 min after stimulation) was chosen. For the poly(I:C) DMR response in A549, the amplitude of the late DMR (i.e., the amplitude 50 min after stimulation) was chosen. For the PMA response in A549, the late DMR amplitude (i.e., the amplitude 50 min after stimulation) was chosen.

[4] = quiescent A431, ligand 10 μM, about 1 hr pretreatment, 32 nM EGF

Nc1ncnc2c1ncn2[C@@H]1O[C@H](COP(=O)(O)OP(=O)(O)O)[C@@H](O)[C@H]1O [ADP]
DMR signal triggered by the ligand (primary profile) ([1]; A549 cells, ligand 10 μM): robust DMR signals

neuropeptide Y
DMR signal triggered by the ligand (primary profile) ([1]; A549 cells, ligand 10 μM): robust DMR signals

Nc1ncnc2c1ncn2[C@@H]1O[C@H](COP(=O)(O)OP(=O)(O)OP(=O)(O)O)[C@@H](O)[C@H]1O [AT]
DMR signal triggered by the ligand (primary profile) ([1]; A549 cells, ligand 10 μM): robust DMR signals

NCCc1c[nH]cn1 [histamine]
DMR signal triggered by the ligand (primary profile) ([1]; A549 cells, ligand 10 μM): robust DMR signals

O=S(=O)(c1cccc2cnccc12)N1CCCNCC1 [HA1077]
modulation of the PMA response [2]: significantly potentiated | modulation of the histamine response [2]: significantly potentiated | modulation of the pinacidil response [2]: almost completely attenuated | modulation of PMA-induced DMR response (late DMR amplitude) ([2]; 8 μM PMA, amplitude 50 min after stimulation): +36% | modulation of SLIGKV-amide-induced DMR response (P-DMR amplitude) ([2]; 8 μM SLIGKV-amide, amplitude 20 min after stimulation): +22% | modulation of histamine-induced DMR response (early P-DMR) ([2]; 10 μM histamine, amplitude 10 min after stimulation): +26% | modulation of histamine-induced DMR response (late P-DMR) ([2]; 10 μM histamine, amplitude 30 min after stimulation): +55% | modulation of forskolin-induced DMR response (P-DMR amplitude) ([2]; 16 μM forskolin, amplitude 50 min after stimulation): +18% | modulation of poly(I:C)-induced DMR response (late DMR amplitude) ([2]; 250 μg/ml poly(I:C), amplitude 50 min after stimulation): +18% | modulation of pinacidil-induced DMR response (N-DMR amplitude) ([2]; ~1 hr pretreatment, 40 μM pinacidil, amplitude 30 min after stimulation): −86% and −95%

O=c1ccn([C@@H]2O[C@H](COP(=O)(O)OP(=O)(O)OP(=O)(O)O)[C@@H](O)[C@H]2O)c(=O)[nH]1 [UTP]
DMR signal triggered by the ligand (primary profile) ([1]; A549 cells, ligand 10 μM): robust DMR signals

adrenodullin: adrenodullin receptor agonist (YRQSMNNFQGLRSFGCRFGTCTVQKLAHQIYQFTDKDKDNVAPRSKISPQGY; ends and bridges not checked; cysteine pairing not given here; UniProt P35318 95-146, looked up)
DMR signal triggered by the ligand (primary profile) ([1]; A549 cells, ligand 10 μM): robust DMR signals

CCCCCCCCCCCCCC(=O)O[C@@H]1[C@@H](C)[C@@]2(O)[C@@H](C=C(CO)C[C@]3(O)C(=O)C(C)=C[C@@H]23)[C@@H]2C(C)(C)[C@]12OC(C)=O [PMA, Phorbol 12-myristate 13-acetate]
DMR signal triggered by the ligand (primary profile), second ligand panel ([1]; A549 cells): robust DMR signals

CCCCCCCC/C=C/CCCCCCCC(=O)O [elaidic acid]
DMR signal triggered by the ligand (primary profile) ([1]; A549 cells, ligand 10 μM): robust DMR signals

NCCCNCCCCNCCCN [spermine]
DMR signal triggered by the ligand (primary profile) ([1]; A549 cells, ligand 10 μM): robust DMR signals

Nc1ncnc2c1ncn2[C@@H]1O[C@H](CO)[C@@H](O)[C@H]1O [adenosine]
DMR signal triggered by the ligand (primary profile) ([1]; A549 cells, ligand 10 μM): robust DMR signals

SFLLR-amide
DMR signal triggered by the ligand (primary profile) ([1]; A549 cells, ligand 10 μM): robust DMR signals

SLIGKV-NH2
DMR signal triggered by the ligand (primary profile) ([1]; A549 cells, ligand 10 μM): robust DMR signals

CCCCC[C@H](O)/C=C/C=C\C=C\C=C\[C@@H](O)[C@@H](O)CCCC(=O)O [lipoxin A4]
DMR signal triggered by the ligand (primary profile) ([1]; A549 cells, ligand 10 μM): robust DMR signals

COc1cc2ncnc(Nc3cccc(Cl)c3)c2cc1OC [AG1478]
modulation of the EGF-induced DMR signal [3, 4]: almost completely blocked

CNCCNS(=O)(=O)c1cccc2cnccc12 [H8]
modulation of the epinephrine response ([3]; A431, molecule 10 μM): less effective at attenuating | modulation of the histamine response ([3]; A431, molecule 10 μM): less effective at attenuating

BML-265
modulation of the EGF-induced DMR signal [3, 4]: almost completely blocked

CC(=O)c1c(O)c(C)c(O)c(Cc2c(O)c3c(c(C(=O)/C=C/c4ccccc4)c2O)OC(C)(C)C=C3)c1O [rottlerin]
modulation of the EGF-induced DMR signal [3, 4]: specifically caused the truncation of the early P-DMR event, as well as part of the early N-DMR event

CNC[C@H](O)c1ccc(O)c(O)c1 [epinephrine]
DMR signal triggered by the ligand (primary profile) [1]: robust DMR signals

poly(I:C)
DMR signal triggered by the ligand (primary profile), second ligand panel ([1]; A549 cells): robust DMR signals

N#CC(=C(/N)Sc1ccccc1N)/C(C#N)=C(\N)Sc1ccccc1N [U0126]
modulation of the EGF-induced DMR signal [3]: significantly and selectively attenuated the N-DMR and the RP-DMR signals

angiotensin
DMR signal triggered by the ligand (primary profile) ([1]; A549 cells, ligand 10 μM): robust DMR signals

CC(N/C(=N\C#N)Nc1ccncc1)C(C)(C)C (stereo not shown) [pinacidil]
DMR signal triggered by the ligand (primary profile), second ligand panel ([1]; A549 cells): robust DMR signals

O=c1ccn([C@@H]2O[C@H](COP(=O)(O)OP(=O)(O)O)[C@@H](O)[C@H]2O)c(=O)[nH]1 [UDP]
DMR signal triggered by the ligand (primary profile) ([1]; A549 cells, ligand 10 μM): robust DMR signals
